One may read the IC50 as the midpoint of a concentration-inhibition curve. Low readings indicate higher potency, high ones lower potency.

≈ marks a conversion by molar mass, not a printed value. Calls of active or inactive are those of the source. The calls are words filed in the database; no cut-off is given here.

We go through 14 molecules from ChEMBL document CHEMBL1149853, “Cannabinoid ester constituents from high-potency Cannabis sativa” (J Nat Prod, 2008).

Test [1] addresses Cannabinoid receptor 1 (Homo sapiens) (UniProt P21554). Briefly: Binding affinity to CB1 receptor.
The subject of test [2] is Candida albicans. Briefly: Antimicrobial activity against Candida albicans ATCC 90028. It is filed as functional, organism-based.
Test [3] relates to Plasmodium falciparum. Briefly: Antimicrobial activity against Plasmodium falciparum D6. Format: functional, organism-based.
The subject of test [4] is Plasmodium falciparum. The experiment in a line: Antimicrobial activity against Plasmodium falciparum W2. Format: functional, organism-based.

Cannabinoid receptor 1 (Homo sapiens), sequence (P21554 whole entry): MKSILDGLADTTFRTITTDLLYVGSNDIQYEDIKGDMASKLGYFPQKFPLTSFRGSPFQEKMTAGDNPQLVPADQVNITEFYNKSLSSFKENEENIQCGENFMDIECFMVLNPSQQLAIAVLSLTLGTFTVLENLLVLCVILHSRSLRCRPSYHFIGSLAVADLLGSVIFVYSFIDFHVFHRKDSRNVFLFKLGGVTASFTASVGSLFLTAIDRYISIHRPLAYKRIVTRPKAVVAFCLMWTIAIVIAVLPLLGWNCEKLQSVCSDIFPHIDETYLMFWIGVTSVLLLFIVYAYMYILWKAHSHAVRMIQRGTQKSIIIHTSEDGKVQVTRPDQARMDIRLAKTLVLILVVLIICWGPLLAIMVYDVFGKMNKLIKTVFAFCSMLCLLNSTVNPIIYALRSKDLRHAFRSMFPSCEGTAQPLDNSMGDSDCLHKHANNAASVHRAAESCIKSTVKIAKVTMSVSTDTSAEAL

With `CCCCCc1cc2c(c(O)c1C(=O)O[C@H]1C(C)(C)[C@@H]3CC[C@@]1(C)C3)[C@@H]1C=C(C)CC[C@H]1C(C)(C)O2`, in test [1], the outcome was inactive. Take `CCCCCc1cc2c(c(O)c1C(=O)OC1(C(C)C)CC=C(C)CC1)-c1cc(C)ccc1C(C)(C)O2` (configuration not stated): the IC50 stood at 8.5 µg/mL (≈ 17.3 µM) in test [2], 2.7 µg/mL (≈ 5.5 µM) in test [3] and 2.4 µg/mL (≈ 4.89 µM) in test [4]. Further, in test [1], the result was inactive. For the molecule `CCCCCc1cc(O)c(C/C=C(\C)CCC=C(C)C)c(O)c1C(=O)O[C@@]1(C)CC[C@@H](C(C)C)[C@@H]2C=C(C)CC[C@H]21`, the outcome in test [1] was inactive. As for `CCCCCc1cc2c(c(O)c1C(=O)O)-c1cc(C)ccc1C(C)(C)O2`, the outcome in test [1] was inactive.

Take `CCCCCc1cc2c(c(O)c1C(=O)O[C@@]1(C)CC[C@@H](C(C)C)[C@@H]3C=C(C)CC[C@H]31)[C@@H]1C=C(C)CC[C@H]1C(C)(C)O2`: the result in test [1] was inactive. As to `CCCCCc1cc2c(c(O)c1C(=O)O[C@@H]1C(C)(C)[C@@H]3CC[C@@]1(C)C3)[C@@H]1C=C(C)CC[C@H]1C(C)(C)O2`, in test [1], the outcome was inactive.

On to `CCCCCc1cc2c(c(O)c1C(=O)O)[C@@H]1C=C(C)CC[C@H]1C(C)(C)O2`, for which, in test [1], the result was inactive.

With `CCCCCc1cc2c(c(O)c1C(=O)O[C@H]1C[C@H]3CC[C@]1(C)C3(C)C)[C@@H]1C=C(C)CC[C@H]1C(C)(C)O2`, in test [1], the outcome was inactive. With `CCCCCc1cc2c(c(O)c1C(=O)OC1(C(C)C)CC=C(C)CC1)[C@@H]1C=C(C)CC[C@H]1C(C)(C)O2` (some centres not stated), the outcome in test [1] was inactive. In the case of `CCCCCc1cc2c(c(O)c1C(=O)O[C@H]1C[C@H]3CC[C@@]1(C)C3(C)C)[C@@H]1C=C(C)CC[C@H]1C(C)(C)O2`, the result in test [1] was inactive. Regarding `CCCCCc1cc(O)c(C/C=C(\C)CCC=C(C)C)c(O)c1C(=O)OC(C)(C)[C@@H]1CC[C@@]2(C)CCCC(C)=C2C1`, in test [1], the result was inactive. For `CCCCCc1cc2c(c(O)c1C(=O)OC(C)(C)C1CC=C(C)CC1)[C@@H]1C=C(C)CC[C@H]1C(C)(C)O2` (some centres not stated), the outcome in test [1] was inactive. For the molecule `CCCCCc1cc(O)c(C/C=C(\C)CCC=C(C)C)c(O)c1C(=O)O`, in test [1], the result was inactive. With `CCCCCc1cc2c(c(O)c1C(=O)OC(C)(C)[C@@H]1CC[C@@]3(C)CCCC(C)=C3C1)[C@@H]1C=C(C)CC[C@H]1C(C)(C)O2`, the outcome in test [1] was inactive.
